Assays:
CDK2 [1] = biological target: T1, CDK2 (Homo sapiens, UniProt P24941); assay: Inhibition of CDK2: phospho-Rb (S807/811) HTRF measurement in OVCAR3 cells; type: cell-based; settings: 24 h compound treatment, read-out: pRb (nM), IC50 in pRB(S807/811) assay
T1 construct: High-Throughput Measurement of Cellular Endogenous CDK2; endogenous in cells; host or cells: OVCAR3

CDK2 [2] = biological target: T1, CDK2; assay: CDK2 HTRF assay: cellular endogenous CDK2 level in OVCAR3 cells; type: cell-based; settings: 24 hours compound treatment, read-out: DC50 (half maximal degradation concentration of CDK2)
Description: Effects of compounds on cellular CDK2 level can be monitored by a high-throughput HTRF assay or traditional Western Blot assay.
To determine half maximal degradation concentration (DC50) values of compounds, cellular CDK2 level was measured in 96-well format using HTRF total CDK2 cellular kit (Cat #64CDK2TPEG) from Cisbio.
On Day 1, OVCAR3 cells were seeded into 96-well tissue-culture treated plates at 20,000 cells/well in 200 μL and incubated overnight at 37° C. in CO2 atmosphere. On Day 2 cells were treated with compounds at concentration ranging from 0.3 to 10,000 nM using HP D300 digital dispenser. 24 hours after compound treatment, cell culture media was removed by flicking the plate and tapping the plate against clean paper towel. Immediately 30 μL 1× lysis buffer was supplemented from the kit and the plate was incubated at room temperature on shaker for 30 min. After homogenization by pipetting up and down, 8 μL cell lysate from 96-well cell culture plate was transferred to 384-well small volume white detection plate. 2 μL premixed detection solution was added and the plate was covered with sealer. To prepare the detection solution, d2 conjugated-CDK2 antibody and Eu-cryptate conjugated CDK2 antibody were diluted into detection buffer following manufacturer's instruction. Detection plates were incubated overnight at room temperature and read on ClarioStar (BMG Labtech) in TR-FRET mode (665 nM and 620 nM). The TR-FRET ratio (665 nM/620 nM) was plotted against the compound concentration and normalized to DMSO controls. Half maximal degradation concentration (DC50) values were calculated with a four-parameter logistic fit using GraphPad Prism (version 8; La Jolla, CA).
In the table below, A indicates a DC50 of less than 0.1 μM; B indicates a DC50 of greater than or equal to 0.1 μM but less than 0.5 μM; C indicates a DC50 of greater than or equal to 0.5 μM but less than 1 μM; and D indicates a DC50 of greater than or equal to 1 μM but less than 10 μM.

SMILES	IC50 (CDK2 [1])	DC50 (CDK2 [2])
Cn1nc(N2CCC(=O)NC2=O)c2ccc(C3CCN(CC4CCN(c5cccc(S(=O)(=O)N6CCC(Nc7ncc(C(F)(F)F)c(-c8cnn(CC(F)(F)F)c8)n7)CC6)c5)CC4)CC3)cc21 [Example 50, 1-(1-methyl-6-(1-((1-(3-((4-((4-(1-(2,2,2-trifluoroethyl)-1H-pyrazol-4-yl)-5-(trifluoromethyl)pyrimidin-2-yl)amino)-piperidin-1-yl)sulfonyl)phenyl)-piperidin-4-yl)methyl)piperidin-4-yl)-1H-indazol-3-yl)dihydropyrimidine-2,4(1H,3H)-dione]	< 100 nM	< 100 nM
O=C1CCC(NC2CCN(Cc3cccc(S(=O)(=O)N4CCC(Nc5ncc(C(F)(F)F)c(-c6cnn(CC(F)(F)F)c6)n5)CC4)c3)CC2)C(=O)N1 (stereo not drawn) [Example 72, 3-((1-(3-((4-((4-(1-(2,2,2-trifluoro-ethyl)-1H-pyrazol-4-yl)-5-(trifluoromethyl)-pyrimidin-2-yl)amino)-piperidin-1-yl)-sulfonyl)benzyl)piperidin-4-yl)amino)-piperidine-2,6-dione]	< 100 nM	< 100 nM
O=C1CCN(C2CCN(Cc3cccc(S(=O)(=O)N4CCC(Nc5ncc(C(F)(F)F)c(-c6cnn(CC(F)(F)F)c6)n5)CC4)c3)C2)C(=O)N1 (stereo not drawn) [Example 81, 1-(1-(3-((4-((4-(1-(2,2,2-trifluoro-ethyl)-1H-pyrazol-4-yl)-5-(trifluoromethyl)-pyrimidin-2-yl)amino)-piperidin-1-yl)sulfonyl)benzyl)-pyrrolidin-3-yl)-dihydropyrimidine-2,4(1H,3H)-dione]	< 100 nM	< 100 nM
O=C1CCN(c2ccc(N3CCN(Cc4cccc(S(=O)(=O)N5CCC(Nc6ncc(C(F)(F)F)c(-c7cnn(CC(F)(F)F)c7)n6)CC5)c4)CC3)nc2)C(=O)N1 [Example 41, 1-(6-(4-(3-((4-((4-(1-(2,2,2-trifluoro-ethyl)-1H-pyrazol-4-yl)-5-(trifluoro-methyl)pyrimidin-2-yl)amino)-piperidin-1-yl)sulfonyl)benzyl)-piperazin-1-yl)pyridin-3-yl)dihydro-pyrimidine-2,4(1H,3H)-dione]	< 100 nM	< 100 nM
CC(Cc1cccc(S(=O)(=O)N2CCC(Nc3ncc(C(F)(F)F)c(-c4cnn(CC(F)(F)F)c4)n3)CC2)c1)CN1CCC(c2ccc3c(N4CCC(=O)NC4=O)nn(C)c3c2)CC1 (stereo not drawn) [Example 78, 1-(1-methyl-6-(1-(2-methyl-3-(3-((4-((4-(1-(2,2,2-trifluoroethyl)-1H-pyrazol-4-yl)-5-(trifluoromethyl)-pyrimidin-2-yl)amino)piperidin-1-yl)sulfonyl)-phenyl)propyl)piperidin-4-yl)-1H-indazol-3-yl)dihydro-pyrimidine-2,4(1H,3H)-dione]	< 100 nM	< 100 nM
O=C1CCC(N2Cc3cc(C4CN(Cc5cccc(S(=O)(=O)N6CCC(Nc7ncc(C(F)(F)F)c(-c8cnn(CC(F)(F)F)c8)n7)CC6)c5)C4)ccc3C2=O)C(=O)N1 (stereo not drawn) [Example 3, 3-(1-oxo-5-(1-(3-((4-((4-(1-(2,2,2-trifluoroethyl)-1H-pyrazol-4-yl)-5-(trifluoromethyl)pyrimidin-2-yl)-amino)-piperidin-1-yl)sulfonyl)-benzyl)azetidin-3-yl)isoindolin-2-yl)piperidine-2,6-dione]	< 100 nM	< 100 nM

The next lines start with the values.

IC50 (CDK2 [1])	DC50 (CDK2 [2])	SMILES
< 100 nM	< 100 nM	O=C1CCC(N2Cc3cc(N4CCC5(CCN(Cc6cccc(S(=O)(=O)N7CCC(Nc8ncc(C(F)(F)F)c(-c9cnn(CC(F)(F)F)c9)n8)CC7)c6)CC5)CC4)ccc3C2=O)C(=O)N1 (stereo not drawn) [Example 12, 3-(1-oxo-5-(9-(3-((4-((4-(1-(2,2,2-trifluoroethyl)-1H-pyrazol-4-yl)-5-(trifluoromethyl)pyrimidin-2-yl)amino)-piperidin-1-yl)sulfonyl)-benzyl)-3,9-diazaspiro[5.5]undecan-3-yl)isoindolin-2-yl)piperidine-2,6-dione]
1000 to 10000 nM	100 to 500 nM	O=C1CCC(N2C(=O)c3cc(F)c(N4CCN(Cc5cccc(S(=O)(=O)N6CC[C@H](Nc7ncc(C(F)(F)F)c(-c8cnn(CC(F)(F)F)c8)n7)[C@H](F)C6)c5)CC4)cc3C2=O)C(=O)N1 (mixture of isomers) [Example 32, Rac-2-(2,6-dioxopiperidin-3-yl)-5-fluoro-6-(4-(3-(((3R,4S)-3-fluoro-4-((4-(1-(2,2,2-trifluoroethyl)-1H-pyrazol-4-yl)-5-(trifluoromethyl)-pyrimidin-2-yl)amino)piperidin-1-yl)sulfonyl)-benzyl)piperazin-1-yl)-isoindoline-1,3-dione]
100 to 500 nM	< 100 nM	Cn1c(S(=O)(=O)N2CCC(Nc3ncc(C(F)(F)F)c(-c4cnn(CC(F)(F)F)c4)n3)CC2)cnc1CN1CCN(c2ccc(N3CCC(=O)NC3=O)cc2)CC1 [Example 26, 1-(4-(4-((1-methyl-5-((4-((4-(1-(2,2,2-trifluoroethyl)-1H-pyrazol-4-yl)-5-(trifluoromethyl)pyrimidin-2-yl)amino)-piperidin-1-yl)sulfonyl)-1H-imidazol-2-yl)methyl)piperazin-1-yl)phenyl)dihydro-pyrimidine-2,4(1H,3H)-dione]
< 100 nM	100 to 500 nM	Cn1cc(-c2nc(NC3CCN(S(=O)(=O)c4cccc(CN5CCN(c6cc7c(cc6F)C(=O)N(C6CCC(=O)NC6=O)C7=O)CC5)c4)CC3)ncc2C(F)(F)F)cn1 (stereo not drawn) [Example 5, 2-(2,6-dioxopiperidin-3-yl)-5-fluoro-6-(4-(3-((4-((4-(1-methyl-1H-pyrazol-4-yl)-5-(trifluoromethyl)pyrimidin-2-yl)-amino)piperidin-1-yl)sulfonyl)-benzyl)-piperazin-1-yl)isoindoline-1,3-dione]
< 100 nM	< 100 nM	Cn1nc(N2CCC(=O)NC2=O)c2ccc(C3CCN(Cc4cccc(S(=O)(=O)N5CC[C@H](Nc6ncc(C(F)(F)F)c(-c7cnn(CC(C)(C)O)c7)n6)[C@H](F)C5)c4)CC3)cc21 (racemic) [Example 70, Rac-1-(6-(1-(3-(((3R,4S)-3-fluoro-4-((4-(1-(2-hydroxy-2-methylpropyl)-1H-pyrazol-4-yl)-5-(trifluoromethyl)-pyrimidin-2-yl)amino)piperidin-1-yl)-sulfonyl)benzyl)piperidin-4-yl)-1-methyl-1H-indazol-3-yl)dihydro-pyrimidine-2,4(1H,3H)-dione]
< 100 nM	< 100 nM	O=C1CCN(c2ccc(N3CCN(Cc4cccc(S(=O)(=O)N5CCC(Nc6ncc(C(F)(F)F)c(-c7cnn(CC(F)(F)F)c7)n6)CC5)c4)CC3)cc2)C(=O)N1 [Example 25, 1-(4-(4-(3-((4-((4-(1-(2,2,2-trifluoro-ethyl)-1H-pyrazol-4-yl)-5-(trifluoro-methyl)pyrimidin-2-yl)amino)-piperidin-1-yl)sulfonyl)benzyl)piperazin-1-yl)-phenyl)dihydro-pyrimidine-2,4(1H,3H)-dione]
< 100 nM	< 100 nM	Cn1c(S(=O)(=O)N2CCC(Nc3ncc(C(F)(F)F)c(-c4cnn(CC(F)(F)F)c4)n3)CC2)cnc1CN1CCN(c2ccc(C3CCC(=O)NC3=O)cc2F)CC1 (stereo not drawn) [Example 20, 3-(3-fluoro-4-(4-((1-methyl-5-((4-((4-(1-(2,2,2-trifluoroethyl)-1H-pyrazol-4-yl)-5-(trifluoromethyl)pyrimidin-2-yl)amino)-piperidin-1-yl)sulfonyl)-1H-imidazol-2-yl)methyl)piperazin-1-yl)phenyl)-piperidine-2,6-dione]
< 100 nM	< 100 nM	Cn1nc(N2CCC(=O)NC2=O)c2ccc(C3CCN(Cc4cccc(S(=O)(=O)N5CCC(Nc6ncc(C(F)(F)F)c(-c7cnn(CC(F)(F)F)c7)n6)CC5)c4)CC3)c(F)c21 [Example 64, 1-(7-fluoro-1-methyl-6-(1-(3-((4-((4-(1-(2,2,2-trifluoroethyl)-1H-pyrazol-4-yl)-5-(trifluoromethyl)pyrimidin-2-yl)amino)-piperidin-1-yl)sulfonyl)-benzyl)-piperidin-4-yl)-1H-indazol-3-yl)dihydro-pyrimidine-2,4(1H,3H)-dione]
100 to 500 nM	100 to 500 nM	O=C1CCC(c2ccc(N3CCN(Cc4cccc(S(=O)(=O)N5CCC(Nc6ncc(C(F)(F)F)c(-c7cnn(CC(F)(F)F)c7)n6)CC5)c4)CC3)c(C(F)(F)F)c2)C(=O)N1 (stereo not drawn) [Example 23, 3-(4-(4-(3-((4-((4-(1-(2,2,2-trifluoro-ethyl)-1H-pyrazol-4-yl)-5-(trifluoro-methyl)pyrimidin-2-yl)amino)-piperidin-1-yl)sulfonyl)benzyl)-piperazin-1-yl)-3-(trifluoromethyl)-phenyl)piperidine-2,6-dione]

Reference: patent publication US20260274853A1, “BIFUNCTIONAL COMPOUNDS CONTAINING PYRIMIDINE DERIVATIVES FOR DEGRADING CYCLIN-DEPENDENT KINASE 2 VIA UBIQUITIN PROTEASOME PATHWAY” (NIKANG THERAPEUTICS, INC., priority 2022, published 2026)
